Our source for the EC50 and IC50 values is patent publication US10669272B2, “Substituted naphthyridinone compounds useful as T cell activators” (BRISTOL-MYERS SQUIBB COMPANY, priority 2018, dated 2020).

One test has as its system naïve human CD8 T cells. As to the kind of experiment: Human CD8 T cells IFN-γ assay.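 Further: Naïve human CD8 T cells stimulated with plate-bound anti-CD3 and soluble anti-CD28, IFN-γ in supernatant quantified by AlphaLISA and converted to pg/mL.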 It is filed as cell-based. The conditions noted are these: read-out: HuCD8 INFG Normalized EC50.
For another test, the target named is T1, human DGKα (Homo sapiens, UniProt P23743).
T1 construct: TVMV protease cleavage site (C); Hexa-His (C); made in house; host or cells: Sf9 insect cells (baculovirus, Bac-to-Bac)
The test can be described thus: DGKα LIPGLO assay (extruded liposome substrate), in vitro DGK inhibition. It is filed as biochemical. The conditions noted are these: read-out: DGKa LIPGLO IC50.

A further test has as its target T2, human DGKζ (Homo sapiens, UniProt Q13574).
T2 construct: TVMV protease cleavage site (C); Hexa-His (C); made in house; host or cells: Sf9 insect cells (baculovirus, Bac-to-Bac)
As to the kind of experiment: DGKζ LIPGLO assay (extruded liposome substrate), in vitro DGK inhibition. In kind it is biochemical. To be noted: read-out: DGKz LIPGLO IC50.

The test system of a further test is Human venous whole blood. The test can be described thus: Human whole blood IFN-γ assay.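 Further: blood from healthy donors exposed to compound for 1 h before stimulation with anti-CD3 and anti-CD28 at 1 µg/mL each, IFN-γ quantified in supernatant by AlphaLISA.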 It is filed as cell-based. To be noted: human whole blood, read-out: INFg Whole Blood Normalized Agonist EC50.
[1] abbreviates: Homo sapiens, T-cell, 20 h, normalized to 3 μM reference compound with anti-CD3 plus anti-CD28 as 100% activation.
[2] abbreviates: Homo sapiens, 24 h, normalized to 3 μM reference compound with anti-CD3 plus anti-CD28 as 100% activation.
[3] abbreviates: normalized to 3 μM reference compound with anti-CD3 plus anti-CD28 as 100% activation.

Broadly, the EC50 is the concentration needed to bring the measured effect to its halfway point. One may read the IC50 as the concentration at which inhibition is half-maximal.

The structures appear in SMILES notation. Where two headings read alike, the source gives them in different places.

T1 sequence (P23743 with tags, fused parts or gaps): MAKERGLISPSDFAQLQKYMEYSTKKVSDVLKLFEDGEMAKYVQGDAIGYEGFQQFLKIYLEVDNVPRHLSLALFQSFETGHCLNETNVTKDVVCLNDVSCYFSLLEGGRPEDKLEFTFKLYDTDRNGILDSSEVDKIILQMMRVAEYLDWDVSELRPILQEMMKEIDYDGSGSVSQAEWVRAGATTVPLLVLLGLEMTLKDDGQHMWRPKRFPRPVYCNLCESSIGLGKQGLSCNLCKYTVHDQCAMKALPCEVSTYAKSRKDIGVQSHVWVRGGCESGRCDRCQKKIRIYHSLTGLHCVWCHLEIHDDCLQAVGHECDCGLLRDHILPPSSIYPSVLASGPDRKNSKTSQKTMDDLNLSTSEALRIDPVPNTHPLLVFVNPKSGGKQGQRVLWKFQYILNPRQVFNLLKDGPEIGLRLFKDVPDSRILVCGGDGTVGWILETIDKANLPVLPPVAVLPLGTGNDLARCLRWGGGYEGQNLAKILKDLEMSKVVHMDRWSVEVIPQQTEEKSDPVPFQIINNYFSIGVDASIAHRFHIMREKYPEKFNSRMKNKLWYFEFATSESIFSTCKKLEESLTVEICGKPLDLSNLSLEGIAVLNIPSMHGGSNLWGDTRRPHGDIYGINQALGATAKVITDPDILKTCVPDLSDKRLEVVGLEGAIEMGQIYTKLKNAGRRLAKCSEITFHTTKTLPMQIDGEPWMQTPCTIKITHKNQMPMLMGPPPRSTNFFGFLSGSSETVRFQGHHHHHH
T2 sequence (Q13574 with tags, fused parts or gaps isoform Q13574-4): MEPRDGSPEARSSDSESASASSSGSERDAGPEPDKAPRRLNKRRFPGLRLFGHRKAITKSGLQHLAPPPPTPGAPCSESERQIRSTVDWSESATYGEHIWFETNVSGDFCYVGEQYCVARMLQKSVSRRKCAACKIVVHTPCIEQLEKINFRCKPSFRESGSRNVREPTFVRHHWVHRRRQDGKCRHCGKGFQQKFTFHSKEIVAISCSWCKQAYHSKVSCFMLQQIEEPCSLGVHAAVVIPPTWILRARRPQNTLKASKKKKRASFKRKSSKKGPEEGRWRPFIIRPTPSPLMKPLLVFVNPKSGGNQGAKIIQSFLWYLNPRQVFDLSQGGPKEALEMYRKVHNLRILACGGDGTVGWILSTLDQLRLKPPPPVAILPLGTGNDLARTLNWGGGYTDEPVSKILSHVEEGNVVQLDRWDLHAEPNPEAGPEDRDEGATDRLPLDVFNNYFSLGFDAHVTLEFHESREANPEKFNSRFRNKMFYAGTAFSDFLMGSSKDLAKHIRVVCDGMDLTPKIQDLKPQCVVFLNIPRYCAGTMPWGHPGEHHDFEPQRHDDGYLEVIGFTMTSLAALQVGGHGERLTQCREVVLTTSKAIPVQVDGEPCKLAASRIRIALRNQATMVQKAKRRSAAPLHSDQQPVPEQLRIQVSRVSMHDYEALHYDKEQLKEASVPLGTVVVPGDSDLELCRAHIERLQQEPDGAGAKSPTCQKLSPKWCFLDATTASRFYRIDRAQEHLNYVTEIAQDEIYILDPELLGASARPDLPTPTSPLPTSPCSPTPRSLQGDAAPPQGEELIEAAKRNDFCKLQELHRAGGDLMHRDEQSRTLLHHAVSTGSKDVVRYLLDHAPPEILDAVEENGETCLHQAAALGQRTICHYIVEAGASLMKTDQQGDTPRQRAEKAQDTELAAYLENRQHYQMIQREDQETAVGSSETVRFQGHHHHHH
Experimental for Human venous whole blood: Human Whole Blood IFN-γ Assay
Human venous whole blood (22.5 μL per well), obtained from healthy donors, was pre-treated with compounds for one hour at 37° C. in a humidified 95% air/5% CO2 incubator. The blood was stimulated with 2.5 μL anti-human CD3 and anti-CD28 mAb at a final concentration of 1 μg/mL each for 24 hours at 37° C. IFN-γ in the supernatants was measured using AlphLISA kit (Cat # AL217).

Take `C[C@@H]1CN(c2cc(=O)n(C)c3ccc(C#N)nc23)[C@@H](C)CN1C(c1ccc(F)cc1)c1ccc(Cl)cc1` (stereo partly drawn) [Example 300, 8-[(2S,5R)-4-[(4-chlorophenyl)(4-fluorophenyl)methyl]-2,5-dimethylpiperazin-1-yl]-5-methyl-6-oxo-5,6-dihydro-1,5-naphthyridine-2-carbonitrile]: the EC50 with naïve human CD8 T cells (setting [1]) was 21 nM; with Human venous whole blood (setting [2]) it was 120 nM. The values for the IC50 on human DGKα (liposome (LIPGLO) assay) and at human DGKζ (liposome (LIPGLO) assay) were 890 nM and 1000 nM, respectively.

For the compound `C[C@@H]1CN(c2cc(=O)n(C)c3ccc(C#N)nc23)[C@@H](C)CN1C(c1ccc(F)cc1)c1ccc(C(F)F)cc1` (single isomer, unassigned) [Example 667], the results for the EC50 in the test on naïve human CD8 T cells (setting [3]) and in the test on Human venous whole blood (setting [3]) were 27 nM and 850 nM, respectively. In addition, the IC50 at human DGKα (liposome (LIPGLO) assay) amounted to 2800 nM; on human DGKζ (liposome (LIPGLO) assay), 2700 nM.

Take `Cc1ccc(C(c2ccc(Cl)cc2)N2C[C@H](C)N(c3cc(=O)n(C)c4ccc(C#N)nc34)C[C@H]2C)nc1` (single isomer, unassigned) [Example 363]: the EC50 in the test with naïve human CD8 T cells (setting [1]) came out at 99 nM; in the test on Human venous whole blood (setting [3]) it was 130 nM. The values for the IC50 at human DGKα (liposome (LIPGLO) assay) and at human DGKζ (liposome (LIPGLO) assay) were 150 nM and 400 nM, respectively.

As for `C[C@@H]1CN(c2cc(=O)n(C)c3ccc(C#N)nc23)[C@@H](C)CN1C(c1ccc(Cl)cc1)c1ccc2c(c1)OC(F)(F)O2` (single isomer, unassigned) [Example 657], the EC50 in the test on naïve human CD8 T cells (setting [1]) worked out at 27 nM; in the test with Human venous whole blood (setting [2]), 660 nM. The IC50 on human DGKα (liposome (LIPGLO) assay) worked out at 2400 nM; on human DGKζ (liposome (LIPGLO) assay), 1600 nM.

In the case of `C[C@@H]1CN(c2cc(=O)n(C)c3ccc(C#N)nc23)[C@@H](C)CN1C(c1ccc(F)cc1)c1nc(C2CCOCC2)no1` (single isomer, unassigned) [Example 739], the EC50 with naïve human CD8 T cells (Homo sapiens, T-cell, 20 h, naïve human CD8 T cells, anti-CD3 plus anti-CD28, 3 μM reference compound = 100% activation) stood at 52 nM; in the test on Human venous whole blood (Homo sapiens, 24 h, anti-CD3 plus anti-CD28, 24 hours, 3 μM reference compound = 100% activation), 190 nM. Further, the IC50 was 130 nM on human DGKα (DGKα liposome (LIPGLO) assay) and 760 nM on human DGKζ (DGKζ liposome (LIPGLO) assay).

For `Cc1ccc(C(c2ccc(C#N)cc2)N2C[C@H](C)N(c3cc(=O)n(C)c4ccc(C#N)nc34)C[C@H]2C)nc1` (single isomer, unassigned) [Example 360], the EC50 in the test with naïve human CD8 T cells (setting [1]) turned out to be 130 nM; in the test on Human venous whole blood (setting [3]), 310 nM. Besides, the IC50 turned out to be 570 nM on human DGKα (liposome (LIPGLO) assay) and 2500 nM at human DGKζ (liposome (LIPGLO) assay).

Take `CC(C)Oc1ncccc1C(c1ccc(F)cc1)N1C[C@H](C)N(c2cc(=O)n(C)c3ccc(C#N)nc23)C[C@H]1C` (single isomer, unassigned) [Example 208]: the EC50 with naïve human CD8 T cells (setting [3]) came to 250 nM; in the test on Human venous whole blood (setting [3]), 1000 nM. For the same compound, the figures for the IC50 on human DGKα (liposome (LIPGLO) assay) and at human DGKζ (liposome (LIPGLO) assay) were 11000 nM and 680 nM, respectively.

For `C[C@@H]1CN(c2cc(=O)n(C)c3ccc(C#N)nc23)[C@@H](C)CN1C(c1ccc(F)cc1)c1c(F)cccc1F` (single isomer, unassigned) [Example 274], the EC50 in the test on naïve human CD8 T cells (setting [3]) came to 42 nM; with Human venous whole blood (setting [2]), 3600 nM. The results for the IC50 on human DGKα (liposome (LIPGLO) assay) and at human DGKζ (liposome (LIPGLO) assay) were 5700 nM and 2500 nM, respectively.

Consider `CCOc1cc(F)ccc1C(c1ccc(F)cc1)N1C[C@H](C)N(c2cc(=O)n(C)c3ccc(C#N)nc23)C[C@H]1C` (single isomer, unassigned) [Example 229], for which the figures for the EC50 in the test on naïve human CD8 T cells (setting [3]) and in the test on Human venous whole blood (setting [2]) were 1000 nM and 8300 nM, respectively. The IC50 on human DGKα (liposome (LIPGLO) assay) came out at 58000 nM; on human DGKζ (liposome (LIPGLO) assay), 450 nM.

For the compound `C[C@@H]1CN(c2cc(=O)n(C)c3ccc(C#N)nc23)[C@@H](C)CN1C(c1ccc(F)cc1)c1cnsc1` (single isomer, unassigned) [Example 715], the concentration for a half-maximal effect (EC50) in the test on naïve human CD8 T cells (setting [1]) came out at 42 nM; with Human venous whole blood (setting [3]), 680 nM. For the same compound, the results for the IC50 on human DGKα (liposome (LIPGLO) assay) and on human DGKζ (liposome (LIPGLO) assay) were 360 nM and 3900 nM, respectively.

For the compound `CCc1ccc(C(c2cccc(F)c2)N2C[C@H](C)N(c3cc(=O)n(C)c4ccc(C#N)nc34)C[C@H]2C)nc1` (single isomer, unassigned) [Example 351], the EC50 with naïve human CD8 T cells (setting [3]) was determined as 31 nM; with Human venous whole blood (setting [3]), 89 nM. Also, the figures for the IC50 on human DGKα (liposome (LIPGLO) assay) and at human DGKζ (liposome (LIPGLO) assay) were 640 nM and 1300 nM, respectively.

As for `COc1cc(F)ccc1C(N1C[C@H](C)N(c2cc(=O)n(C)c3ccc(C#N)nc23)C[C@H]1C)C(C)(C)C` (single isomer, unassigned) [Example 185], the figures for the EC50 with naïve human CD8 T cells (setting [1]) and in the test on Human venous whole blood (setting [3]) were 10000 nM and 2000 nM, respectively. Besides, the IC50 on human DGKα (liposome (LIPGLO) assay) worked out at 4400 nM; on human DGKζ (liposome (LIPGLO) assay) it was 210 nM.

For the compound `Cc1nccc(C(c2ccc(F)cc2)N2C[C@H](C)N(c3cc(=O)n(C)c4ccc(C#N)nc34)C[C@H]2C)n1` (single isomer, unassigned) [Example 389], the EC50 in the test with naïve human CD8 T cells (setting [1]) is 25 nM; in the test with Human venous whole blood (setting [3]), 280 nM. Moreover, the IC50 at human DGKα (liposome (LIPGLO) assay) came to 2200 nM; at human DGKζ (liposome (LIPGLO) assay), 1100 nM.
